Data taken from patent US20230190723A1 (MEREO BIOPHARMA 4 LIMITED, priority 2020, published 2023).

How the values were obtained:
neutrophil elastase = biological target: T1, neutrophil elastase (Homo sapiens, UniProt P08246); test: proteinase/anti-proteinase imbalance model (fMLP-stimulated isolated neutrophils with fibrinogen, NE activity footprint Aα-Val360); format: cell-based; conditions: for NE activity remaining, % of untreated (Aα-Val360): no inhibitor = 100%
T1 construct: Neutrophils from healthy young volunteers were isolated; endogenous in cells; host or cells: neutrophils isolated from blood of healthy young volunteers, stimulated with fMLP in the presence of fibrinogen
T1 sequence (P08246 30-267): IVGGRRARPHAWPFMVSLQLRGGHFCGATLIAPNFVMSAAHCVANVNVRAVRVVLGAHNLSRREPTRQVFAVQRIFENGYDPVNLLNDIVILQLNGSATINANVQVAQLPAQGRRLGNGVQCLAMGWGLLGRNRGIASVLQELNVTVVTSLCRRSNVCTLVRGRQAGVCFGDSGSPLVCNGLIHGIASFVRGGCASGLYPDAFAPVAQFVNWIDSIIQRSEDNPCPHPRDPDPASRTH
Procedure: Neutrophils from healthy young volunteers were isolated using a method broadly described by Jepsen and Skottun [10].
Supernatant was obtained through centrifugation, and NE activity footprints were measured.

NE = biological target: T2, NE (Homo sapiens, UniProt P08246); test: enzyme kinetics: SlaaapN cleavage by NE in the presence of inhibitor; format: biochemical
T2 construct: purchased Athens Research and Technology, US
T2 sequence (P08246 30-267): T1 sequence (P08246 30-267)
Procedure: Results were determined computationally using Prism software.

neutrophils = test: validation of the Aα-Val360 assay with stimulated neutrophils; format: cell-based, human; conditions: 15 minutes
Procedure: Baseline corrected Aα-Val^360 levels following stimulation of neutrophils at 2.5 million/ml with Cal at 2.4/2.1/1.8/1.5/1.2/0.9/0.6/0.3 μM with fibrinogen (550 nM) for 60 minutes; n=3.
Change in Aα-Val^360 levels following stimulation of neutrophils at 2.5 million/ml with fMLP at 0, 0.1,1,10 μM fMLP with fibrinogen (550 nM) for 15 minutes; n=3.
To determine maximal stimulation a potent stimulator of neutrophils, Cal, [11] was titrated out from 0-2.4 μM and specific proteinase fibrinogen-cleavage product measured.
To assess a more physiological stimulus, neutrophils were then incubated with N-formylmethionine-leucyl-phenylalanine (fMLP).

[1] = biological target: Porcine Pancreatic Elastase (Sus scrofa, UniProt P00772); test: enzyme kinetics: SlaaapN cleavage by PPE after incubation with AAT; format: biochemical
[2] = simple linear regression, control fixed at 100%

Chain of Porcine Pancreatic Elastase (P00772 27-266): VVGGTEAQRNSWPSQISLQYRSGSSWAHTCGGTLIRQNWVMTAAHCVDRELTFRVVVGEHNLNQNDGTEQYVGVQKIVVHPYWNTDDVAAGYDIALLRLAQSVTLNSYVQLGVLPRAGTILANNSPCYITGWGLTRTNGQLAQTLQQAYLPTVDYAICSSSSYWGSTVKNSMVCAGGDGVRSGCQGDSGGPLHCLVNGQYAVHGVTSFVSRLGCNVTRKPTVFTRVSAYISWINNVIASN

Cc1c(-c2ccnn2C)cc(C(=O)NCc2ccc(S(C)(=O)=O)cn2)c(=O)n1-c1cccc(C(F)(F)F)c1 [alvelestat, 6-methyl-5-(1-methyl-1H-pyrazol-5-yl)-N-{[5-(methylsulfonyl)pyridin-2-yl]methyl}-2-oxo-1-[3-(trifluoromethyl)phenyl]-1,2-dihydropyridine-3-carboxamide] was tested. Which “NE activity remaining, % of untreated (Aα-Val360)” value (neutrophil elastase; alvelestat 10 nM) did it give?
The value was 60.1%.

And the “NE activity remaining, % of untreated (Aα-Val360)” value (neutrophil elastase; alvelestat 1000 nM)?
The value was 27.4%.

What about the inhibition at 1 µM (neutrophil elastase; read-out: inhibition (suppression) of NE activity) of the same compound?
Its inhibition at 1 µM is 72.6%.

What about the “molar ratio of inhibitor required to fully inhibit NE (inhibitor:NE, x:1)” value (NE; SlaaapN substrate, by extrapolation) of the same compound?
The value was 0.87.

What about the “Slope, best-fit value (alvelestat:NE ratio vs NE enzymatic activity, FIG. 7)” value (NE; [2]) of the same compound?
The value was −114.4.

And the “X-intercept, best-fit value (alvelestat:NE ratio vs NE enzymatic activity, FIG. 7)” value (NE; [2])?
Its value is 0.8742.

And the “alvelestat activity against NE” value (NE; titrated against elastase of known concentration and activity, Prism)?
The value was 88%.

What does the source list for CSCC[C@H](NC=O)C(=O)N[C@@H](CC(C)C)C(=O)N[C@@H](Cc1ccccc1)C(=O)O [fMLP, N-formyl-L-methionyl-L-leucyl-phenylalanine]?
increase of NE activity (Aα-Val360) (neutrophils; 0.1 μM fMLP, neutrophils 2.5 million/ml, fibrinogen 550 nM): 11.4 nM; further increase of NE activity (Aα-Val360) (neutrophils; 1 μM fMLP, relative to 0.1 μM): 7.3 nM; increase of NE activity (Aα-Val360) (neutrophils; 10 μM fMLP, the values are: Aα-Val360 level (NE activity)): 35 nM

“AAT: protective anti-proteinase alpha-1 antitrypsin, physiological inhibitor of neutrophil serine proteinases; purified batch from Athens Research & Technology” was tested. Which “molar concentration of AAT required to neutralise 1 Mol active PPE” value ([1]; SlaaapN substrate) did it give?
The value was 1.208 mol.

What about the “functional AAT activity” value ([1]; calculated from 1.208:1 AAT:PPE) of the same compound?
The value was 83%.
